Patent US11865183B2, “Conjugates and conjugating reagents comprising a linker that includes at least two (−CH2—CH2—O—) units in a ring” (priority 2016, dated 2024)
Values joined by “and” are separate entries in the source; they are usually repeats but may differ in a detail not shown here. Equal entries are not always repeated. Non-standard residues stand in square brackets, D forms with d. Residues, ends and D or L forms follow the SMILES beside them. *: point of attachment. Dolaproine = CO[C@@H]([C@@H]1CCCN1)[C@@H](C)C(=O)O; Dil = CC[C@H](C)[C@H](NC)[C@@H](CC(=O)O)OC; X1 = C[C@@H](N*)[C@@H](O)c1ccccc1; NMeV = CN[C@H](C(=O)O)C(C)C

Experiments:
[1] = test system: Karpas-299 cells (T-anaplastic large cell lymphoma, ALCL); assay: Karpas-299 mouse xenograft study; assay type: in vivo, CB17-SCID mice; settings: single i.v. 1 mg/kg on day 12, groups of eight mice
Method: Healthy female CB17-SCID mice (CBySmn.CB17-Prkdcscid/J, Charles River Laboratories) with an average body weight of 18.1 g were used for cell inoculation (Day 0). 24 to 72 h prior to tumour cell injection, the mice were γ-irradiated (1.44 Gy, ^60Co). The animals were maintained in SPF health status according to the FELASA guidelines in housing rooms under controlled environmental conditions.
Tumours were induced by subcutaneous injection of 10^7 Karpas-299 cells (T-anaplastic large cell lymphoma, ALCL) in 200 μL of RPMI 1640 into the right flank. Tumours were measured twice a week with calipers, and the volume was estimated using the formula: […]
Twelve days after tumour implantation (Day 12), the animals were randomised into groups of eight mice using Vivo manager® software (211 mm^3 mean tumour volume) and treatment was initiated. The animals from the vehicle group received a single intravenous (i.v.) injection of PBS. The treated groups were dosed with a single i.v. injection of ADC at 0.8 mg/kg, or Adcetris© (brentuximab vedotin) at 1 mg/kg.
Treatment tolerability was assessed by bi-weekly body weight measurement and daily observation for clinical signs of treatment-related side effects. Mice were euthanized when a humane endpoint was reached (e.g. 1,600 mm^3 tumour volume) or after a maximum of 9 weeks post-dosing. Asterisks within the graphs indicate where animals were euthanized. […]

LNCaP cells (PSMA) = assay: In vitro cell viability assay (Cell-Titer Glo), LNCaP; assay type: cell-based; settings: 96 h treatment
Excerpt: (§1) Loss of tumour cell viability following treatment with cytotoxic drugs in vitro can be measured by growing cell lines in the presence of increasing concentrations of drug and quantifying the loss of proliferation or metabolic activity using Cell-Titer Glo® Luminescent reagent (Promega). The protocol for PSMA and CD30 overexpressing cell lines describes cell seeding, drug treatment and determination of the cell viability in reference to untreated cells based on ATP synthesis, which is directly correlated to the number of cells present in the well.
(§2) The cell lines listed in Table 2 were maintained following the suppliers' recommendations.
(§3) Adherent PSMA-positive LNCaP and C4-2 cells were detached with TrypLE and resuspended in complete medium. Cells were counted using disposable Neubauer counting chambers and cell density adjusted to 10×10^4 cells/mL for LNCaP and 2×10^4 cells/mL for C4-2, respectively. […]
(§4) The cell viability assay was carried out using the Cell-Titer Glo® Luminescence reagent, as described by the manufacturer's instructions, (Promega Corp. Technical Bulletin TB288; Lewis Phillips G. D, Cancer Res 2008; 68:9280-9290).
(§5) Luminescence was recorded using a Molecular Devices Spectramax i3x plate reader and data subsequently analysed using GraphPad Prism four parameter non-linear regression model. […]

C4-2 cells (PSMA) = assay: In vitro cell viability assay (Cell-Titer Glo), C4-2; assay type: cell-based; settings: C4-2, 96 h treatment
Excerpt: as §1, §2, §3, §4, §5

Karpas 299 cells (CD30) = assay: In vitro cell viability assay (Cell-Titer Glo), Karpas 299; assay type: cell-based, Human; settings: Karpas 299, 96 h treatment
Excerpt: Viability was expressed as % of untreated cells and calculated using the following formula: […]

Row | Molecule | Animals with tumour re-growth ([1]; after day 20) | Animals with no measureable tumour at end of study (day 71) [1] | IC50 (LNCaP cells (PSMA)) | IC50 (C4-2 cells (PSMA)) | IC50 (Karpas 299 cells (CD30))
1 | brentuximab vedotin [Adcetris®] | 7/8 | 1/8 |  |  | 
2 | CC[C@H](C)[C@@H]([C@@H](CC(=O)N1CCC[C@H]1[C@H](OC)[C@@H](C)C(=O)N[C@H](C)[C@@H](O)c1ccccc1)OC)N(C)C(=O)[C@@H](NC(=O)[C@@H](NC)C(C)C)C(C)C [MMAE, monomethyl auristatin E] (H-[NMeV]V[Dil][Dolaproine]-X1) |  |  | 2.14 nM | 0.71 nM | 0.15 nM and 0.2 nM
